In ChEMBL document CHEMBL3045183, “Bioefficacy of violacein against Asian armyworm Spodoptera litura Fab. (Lepidoptera: Noctuidae)” (2012):
Converted amounts (≈) assume the structure as drawn. The source made the active and inactive calls. The rule behind the calls is not given here.

What was measured:
Helicoverpa armigera = assay: Antifeedant activity against Helicoverpa armigera at 1000 ppm; format: functional
Spodoptera litura [1] = assay: Insecticidal activity Spodoptera litura third-instar larva fed on 1000 ppm compound pre-treated castor leaf disks for 24 hr followed by larval maintenance on fresh castor leaves assessed as induction of abnormalities; format: functional, organism-based
Spodoptera litura [2] = assay: Insecticidal activity Spodoptera litura third-instar larva fed on 1000 ppm compound pre-treated castor leaf disks for 24 hr followed by larval maintenance on fresh castor leaves assessed as total mortality (reference value: 8%); format: functional
Spodoptera litura [3] = assay: Insecticidal activity Spodoptera litura third-instar larva fed on 500 ppm compound pre-treated castor leaf disks for 24 hr followed by larval maintenance on fresh castor leaves assessed as total mortality (reference value: 8%); format: functional
Spodoptera litura [4] = assay: Insecticidal activity Spodoptera litura third-instar larva fed on 250 ppm compound pre-treated castor leaf disks for 24 hr followed by larval maintenance on fresh castor leaves assessed as total mortality (reference value: 8%); format: functional
Spodoptera litura [5] = assay: Insecticidal activity Spodoptera litura third-instar larva fed on 125 ppm compound pre-treated castor leaf disks for 24 hr followed by larval maintenance on fresh castor leaves assessed as total mortality (reference value: 8%); format: functional
Spodoptera litura [6] = assay: Pupicidal activity Spodoptera litura third-instar larva fed on 1000 ppm compound pre-treated castor leaf disks for 24 hr followed by larval maintenance on fresh castor leaves until pupae formation assessed as pupal mortality (reference value: 8.0 +/- 4.47%); format: functional
Spodoptera litura [7] = assay: Pupicidal activity Spodoptera litura third-instar larva fed on 500 ppm compound pre-treated castor leaf disks for 24 hr followed by larval maintenance on fresh castor leaves until pupae formation assessed as pupal mortality (reference value: 8.0 +/- 4.47%); format: functional
Spodoptera litura [8] = assay: Pupicidal activity Spodoptera litura third-instar larva fed on 250 ppm compound pre-treated castor leaf disks for 24 hr followed by larval maintenance on fresh castor leaves until pupae formation assessed as pupal mortality (reference value: 8.0 +/- 4.47%); format: functional
Spodoptera litura [9] = assay: Pupicidal activity Spodoptera litura third-instar larva fed on 125 ppm compound pre-treated castor leaf disks for 24 hr followed by larval maintenance on fresh castor leaves until pupae formation assessed as pupal mortality (reference value: 8.0 +/- 4.47%); format: functional
Spodoptera litura [10] = assay: Larvicidal activity Spodoptera litura third-instar larva fed on compound pre-treated castor leaf disks for 24 hr followed by larval maintenance on fresh castor leaves assessed as insect mortality measured after 96 hr; format: functional; conditions: for LC50: Spodoptera litura, foliar
Spodoptera litura [11] = assay: Larvicidal activity Spodoptera litura third-instar larva fed on 1000 ppm compound pre-treated castor leaf disks for 24 hr followed by larval maintenance on fresh castor leaves assessed as insect mortality measured after 96 hr; format: functional
Spodoptera litura [12] = assay: Larvicidal activity Spodoptera litura third-instar larva fed on 500 ppm compound pre-treated castor leaf disks for 24 hr followed by larval maintenance on fresh castor leaves assessed as insect mortality measured after 96 hr; format: functional
Spodoptera litura [13] = assay: Larvicidal activity Spodoptera litura third-instar larva fed on 250 ppm compound pre-treated castor leaf disks for 24 hr followed by larval maintenance on fresh castor leaves assessed as insect mortality measured after 96 hr; format: functional
Spodoptera litura [14] = assay: Larvicidal activity Spodoptera litura third-instar larva fed on 125 ppm compound pre-treated castor leaf disks for 24 hr followed by larval maintenance on fresh castor leaves assessed as insect mortality measured after 96 hr; format: functional
Spodoptera litura [15] = assay: Antifeedant activity against Spodoptera litura third-instar larva fed on compound pre-treated castor leaf disks measured after 24 hr by leaf-disk no-choice method (reference value: 2.09 +/- 0.94%); format: functional; conditions: for LC50: Spodoptera litura, foliar
Spodoptera litura [16] = assay: Antifeedant activity against Spodoptera litura third-instar larva fed on 1000 ppm compound pre-treated castor leaf disks measured after 24 hr by leaf-disk no-choice method (reference value: 2.09 +/- 0.94%); format: functional
Spodoptera litura [17] = assay: Antifeedant activity against Spodoptera litura third-instar larva fed on 500 ppm compound pre-treated castor leaf disks measured after 24 hr by leaf-disk no-choice method (reference value: 2.09 +/- 0.94%); format: functional
Spodoptera litura [18] = assay: Antifeedant activity against Spodoptera litura third-instar larva fed on 250 ppm compound pre-treated castor leaf disks measured after 24 hr by leaf-disk no-choice method (reference value: 2.09 +/- 0.94%); format: functional
Spodoptera litura [19] = assay: Antifeedant activity against Spodoptera litura third-instar larva fed on 125 ppm compound pre-treated castor leaf disks measured after 24 hr by leaf-disk no-choice method (reference value: 2.09 +/- 0.94%); format: functional
Chironomus riparius = assay: Larvicidal activity against Chironomus riparius; format: functional

| SMILES | mortality (Spodoptera litura [4]) [%] | mortality (Spodoptera litura [5]) [%] | mortality (Spodoptera litura [8]) [%] | mortality (Spodoptera litura [9]) [%] | LC90 (Spodoptera litura [10]) [ppm] | LC50 (Spodoptera litura [10]) [µg/mL] | mortality (Spodoptera litura [11]) [%] | mortality (Spodoptera litura [12]) [%] | mortality (Spodoptera litura [13]) [%] | mortality (Spodoptera litura [14]) [%] | LC90 (Spodoptera litura [15]) [ppm] | LC50 (Spodoptera litura [15]) [µg/mL] | AFI (Spodoptera litura [16]) [%] | AFI (Spodoptera litura [17]) [%] | AFI (Spodoptera litura [18]) [%] | AFI (Spodoptera litura [19]) [%] | also measured |
| --- | --- | --- | --- | --- | --- | --- | --- | --- | --- | --- | --- | --- | --- | --- | --- | --- | --- |
| O=C1NC(c2c[nH]c3ccc(O)cc23)=C/C1=C1\C(=O)Nc2ccccc21 [VIOLACEIN] | 77.99 | 51.11 | 24 | 22 | 2016.71 | 255 (≈ 743 µM) | 77.1 | 68.88 | 53.99 | 29.11 | 3649.91 | 392 (≈ 1140 µM) | 72.46 | 55.16 | 39.69 | 28.66 | AFI (Helicoverpa armigera): >80%; Activity (Spodoptera litura [1]): Active; mortality (Spodoptera litura [2]): 99.1%; mortality (Spodoptera litura [3]): 89.58%; mortality (Spodoptera litura [6]): 22%; mortality (Spodoptera litura [7]): 20.7% |
| [C-]#[N+][C@@H]1[C@H]2c3c[nH]c4cccc(c34)C(C)(C)[C@H]2CC[C@@]1(C)C=C [12-EPI-HAPALINDOLE J ISONITRILE] | – | – | – | – | – | – | – | – | – | – | – | – | – | – | – | – | Activity (Chironomus riparius): 100% |
| C/C=C(\C)C(=O)O[C@H]1C[C@@H](OC(C)=O)[C@@]2(C(=O)OC)CO[C@H]3[C@@H](O)[C@@](C)([C@]45O[C@@]4(C)[C@@H]4C[C@H]5O[C@@H]5OC=C[C@@]54O)[C@H]4[C@]1(CO[C@]4(O)C(=O)OC)[C@@H]32 [AZADIRACHTIN A] | 98.28 | 85.33 | 28 | 28 | 412.78 | 119 (≈ 165 µM) | 100 | 93.55 | 70.21 | 57.33 | 3278.46 | 134 (≈ 186 µM) | 79.41 | 70.49 | 61.31 | 49.67 | – |
